Publication PMC11181328 (Journal of Medicinal Chemistry, 2024)
Counter-ions that a name gives are not always drawn.

Legend:
[1] = test system: male and female Sprague–Dawley rats; conditions: intravenous, FR5 schedule of reinforcement, 2 h sessions
male Swiss Webster mice [2] = experiment: Warm-water tail immersion assay, receptor selectivity study; format: in vivo, mouse
male Swiss Webster mice [3] = experiment: Locomotor activity assay; format: in vivo, mouse; conditions: s.c., 30 min session
Protocol: This hypolocomotion could result in false positives in assays of evoked antinociception such as WWTI.[115] Thus, a locomotor activity assay was utilized to assess this end point in accordance with previous studies.[28] In brief, the day prior to testing, mice were placed in the open field chamber for acclimation. On the test day, they were injected with compounds 21, 23, NLF, or vehicle and immediately placed back into the open field chamber. Photo beam breaks then recorded the mouse’s locomotion over a 30 min test period.
Six open field activity chambers (Med Associates, St. Albans, VT) were used in the locomotor activity study. Each chamber is located inside a sound-attenuating cubicle (Med Associates) and is equipped with a ventilation system. The interior of the chamber consists of a 27 × 27 cm plexiglass enclosure wired with photobeam cells and connected to a computer console that monitors the activity of the animal.
The day before the experiment, mice were acclimated to the activity chambers for a period of 30 min. On the day of the experiment, mice were administered vehicle or test compound s.c., placed into the activity chambers immediately and activity was monitored and recorded for a period of 30 min.
The primary dependent measures are total (1) distance traveled (cm), (2) ambulatory counts, (3) vertical counts, and (4) average speed (cm/s) within the 30 min session. Data are shown as mean ± SEM. Data were compared using one-way or two-way ANOVA as appropriate and a significant ANOVA was followed by a Dunnet’s post hoc test as appropriate. Statistical significance was defined as p < 0.05.

DOR = molecular target: T1, DOR (Homo sapiens, UniProt P41143); conditions: read-out: radioligand binding affinity (Ki, nM) DOR; [3H]diprenorphine; cited from earlier work
T1 construct: expressed in transfected cells; membrane homogenate
T1 sequence (P41143 whole entry): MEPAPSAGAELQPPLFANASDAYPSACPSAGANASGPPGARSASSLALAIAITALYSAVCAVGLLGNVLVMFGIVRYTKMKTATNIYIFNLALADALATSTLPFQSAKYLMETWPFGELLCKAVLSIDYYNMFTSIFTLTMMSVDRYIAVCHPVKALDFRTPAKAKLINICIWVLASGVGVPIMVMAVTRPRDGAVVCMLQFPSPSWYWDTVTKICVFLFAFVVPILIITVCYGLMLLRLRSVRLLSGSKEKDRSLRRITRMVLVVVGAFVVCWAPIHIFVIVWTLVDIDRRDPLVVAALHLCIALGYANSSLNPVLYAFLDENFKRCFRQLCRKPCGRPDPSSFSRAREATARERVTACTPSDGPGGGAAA

male Swiss Webster mice [4] = experiment: Warm-water tail immersion assay, time course study; format: in vivo, mouse; conditions: 0.1 mg/kg s.c.
male Swiss Webster mice [5] = conditions: warm-water tail immersion; cited from earlier work
[6] = same conditions; cited from earlier work
male Swiss Webster mice [7] = conditions: 0.1 mg/kg; cited from earlier work
hERG = hERG (Homo sapiens, UniProt Q12809); conditions: read-out: hERG IC50; cited from earlier work
Sequence of hERG (Q12809 whole entry): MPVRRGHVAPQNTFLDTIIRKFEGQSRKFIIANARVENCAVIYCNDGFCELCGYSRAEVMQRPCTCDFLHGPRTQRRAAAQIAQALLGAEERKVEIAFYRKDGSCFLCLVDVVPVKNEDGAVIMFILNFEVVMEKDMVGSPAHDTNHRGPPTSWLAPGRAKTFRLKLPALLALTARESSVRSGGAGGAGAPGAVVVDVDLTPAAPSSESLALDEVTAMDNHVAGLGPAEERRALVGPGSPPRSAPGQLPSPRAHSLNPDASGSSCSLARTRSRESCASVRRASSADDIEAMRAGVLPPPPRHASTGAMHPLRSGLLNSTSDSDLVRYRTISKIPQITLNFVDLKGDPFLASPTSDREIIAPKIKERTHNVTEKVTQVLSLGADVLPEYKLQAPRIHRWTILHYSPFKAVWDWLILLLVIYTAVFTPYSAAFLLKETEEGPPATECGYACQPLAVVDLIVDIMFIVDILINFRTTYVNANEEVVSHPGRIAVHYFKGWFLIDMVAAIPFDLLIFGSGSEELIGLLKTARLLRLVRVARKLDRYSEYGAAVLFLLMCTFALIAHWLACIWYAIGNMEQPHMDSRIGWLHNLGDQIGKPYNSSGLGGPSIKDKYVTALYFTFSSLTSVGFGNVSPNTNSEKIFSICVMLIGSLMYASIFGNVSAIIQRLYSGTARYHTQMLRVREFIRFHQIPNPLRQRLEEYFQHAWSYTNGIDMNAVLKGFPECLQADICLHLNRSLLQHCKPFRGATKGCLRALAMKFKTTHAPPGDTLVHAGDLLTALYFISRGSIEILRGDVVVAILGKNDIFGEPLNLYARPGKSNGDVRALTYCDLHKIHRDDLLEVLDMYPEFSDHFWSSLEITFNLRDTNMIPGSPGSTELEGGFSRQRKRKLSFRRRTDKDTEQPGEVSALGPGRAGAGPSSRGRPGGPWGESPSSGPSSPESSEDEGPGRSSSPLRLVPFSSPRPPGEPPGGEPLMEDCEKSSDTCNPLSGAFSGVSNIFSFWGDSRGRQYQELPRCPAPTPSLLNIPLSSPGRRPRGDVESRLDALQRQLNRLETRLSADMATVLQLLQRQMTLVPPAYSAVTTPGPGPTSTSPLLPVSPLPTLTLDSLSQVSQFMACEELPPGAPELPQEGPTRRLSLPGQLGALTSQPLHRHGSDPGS

male Swiss Webster mice [8] = experiment: Warm-water tail immersion assay, antagonism of morphine; format: in vivo, mouse; conditions: s.c. 5 min prior to morphine

| SMILES | reinforcing effect (number of infusions earned versus saline) [1] | antagonism of antinociceptive effects by nor-BNI (KOR antagonist) pretreatment (male Swiss Webster mice [2]; 10 mg/kg nor-BNI s.c. 24 h prior to 0.1 mg/kg test compound s.c. (23 also 0.05 mg/kg)) | antagonism of antinociceptive effects by β-FNA (MOR antagonist) pretreatment (male Swiss Webster mice [2]; 10 mg/kg β-FNA s.c. 24 h prior to 0.1 mg/kg test compound s.c.) | antagonism of antinociceptive effects by NTI (DOR antagonist) pretreatment (male Swiss Webster mice [2]; 15 mg/kg NTI s.c. 30 min prior to 0.1 mg/kg test compound s.c. (23 also 0.05 mg/kg)) | antagonism of antinociceptive effects by NTI and nor-BNI pretreatment together (male Swiss Webster mice [2]; nor-BNI 10 mg/kg + NTI 15 mg/kg s.c. prior to test compound) | locomotor activity (male Swiss Webster mice [3]) | average speed by time versus vehicle (male Swiss Webster mice [3]; Figure 6F–H) | Ki (DOR) [nM] | antinociceptive effects significant until (time postinjection) (male Swiss Webster mice [4]) [h] | return to the baseline postinjection (male Swiss Webster mice [4]) [h] | potency ED50 [95% CI] mg/kg (male Swiss Webster mice [5]) | half-life in rat liver S9 fraction [6] [min] | duration of antinociceptive effects (male Swiss Webster mice [7]) [h] | IC50 (hERG) [nM] | blockade of morphine antinociception (male Swiss Webster mice [8]) |
| --- | --- | --- | --- | --- | --- | --- | --- | --- | --- | --- | --- | --- | --- | --- | --- |
| CN(C(=O)/C=C/c1ccoc1)[C@@H]1CC[C@@]2(O)[C@H]3Cc4ccc(O)c5c4[C@@]2(CCN3CC2CC2)[C@H]1O5.Cl [NLF, Nalfurafine, reference compound] | did not function as a reinforcer | significantly lower | not antagonized by β-FNA | significantly lower | did not result in a more drastic decrease than either antagonist alone | slight dose-dependent trends for decreased locomotion | significantly different from vehicle | 116 ± 20.9 | 1 | 9 | 0.046 [0.016–0.126] mg/kg | – | – | – | – |
| CN(C(=O)/C=C/c1ccoc1)[C@H]1CC[C@@]2(O)[C@H]3Cc4ccc(O)c5c4[C@@]2(CCN3CC2CC2)[C@H]1O5.Cl [NMF] | – | – | – | – | – | – | – | 0.64 ± 0.11 | – | – | 0.037 [0.014–0.096] mg/kg | 10 | 1 | 6700 | – |
| C=CCN1CC[C@]23c4c5ccc(O)c4O[C@H]2C(=O)CC[C@@]3(O)[C@H]1C5 [naloxone, Naloxone HCl] | – | – | – | – | – | – | – | – | – | – | – | – | – | – | sufficiently antagonized morphine antinociception |
